Test results from patent US10106538B2, “Inhibitors of protein kinases” (PRINCETON DRUG DISCOVERY INC, priority 2015, dated 2018).

How the values were obtained:
Experiment in all cases: Off-chip Mobility Shift Assay (MSA) kinase inhibition
Type in all cases: biochemical
PIK3CA/PIK3R1 = target: T1, PIK3CA/PIK3R1 (Homo sapiens, UniProt P42336); details: for inhibition at 0.1 µM: inhibitor concentration 0.1 μM
T1 construct: purchased Carna Biosciences
Procedure: (§1) Off-chip Mobility Shift Assay (MSA) by Cama Biosciences, Inc (Natick, Mass.) a used for measuring the kinase activity and inhibition. • 1) The 5 μL of x4 compound solution, 5 μL of x4 Substrate/ATP/Metal solution, and 10 μL of x2 kinase solution were prepared with assay buffer (20 mM HEPES, 0.01% Triton X100, 2 mM DTT, pH 7.5) and mixed and incubated in a well of polypropylene 384 well microplate for 1 or 5 hour(s)* at room temperature.

HER4 = target: T2, HER4 (Homo sapiens, UniProt Q15303); details: for inhibition at 0.1 µM: inhibitor concentration 0.1 μM
T2 construct: purchased Carna Biosciences
Procedure: as §1

JAK1 = target: T3, JAK1 (Homo sapiens, UniProt P23458); details: for inhibition at 0.1 µM: inhibitor concentration 0.1 μM
T3 construct: purchased Carna Biosciences
Procedure: as §1

RET = target: T4, RET (Homo sapiens, UniProt P07949); details: for inhibition at 0.1 µM: inhibitor concentration 0.1 μM
T4 construct: purchased Carna Biosciences
Procedure: as §1

JAK3 = target: T5, JAK3 (Homo sapiens, UniProt P52333); details: for inhibition at 0.1 µM: inhibitor concentration 0.1 μM
T5 construct: purchased Carna Biosciences
T5 sequence (P52333 1-1124): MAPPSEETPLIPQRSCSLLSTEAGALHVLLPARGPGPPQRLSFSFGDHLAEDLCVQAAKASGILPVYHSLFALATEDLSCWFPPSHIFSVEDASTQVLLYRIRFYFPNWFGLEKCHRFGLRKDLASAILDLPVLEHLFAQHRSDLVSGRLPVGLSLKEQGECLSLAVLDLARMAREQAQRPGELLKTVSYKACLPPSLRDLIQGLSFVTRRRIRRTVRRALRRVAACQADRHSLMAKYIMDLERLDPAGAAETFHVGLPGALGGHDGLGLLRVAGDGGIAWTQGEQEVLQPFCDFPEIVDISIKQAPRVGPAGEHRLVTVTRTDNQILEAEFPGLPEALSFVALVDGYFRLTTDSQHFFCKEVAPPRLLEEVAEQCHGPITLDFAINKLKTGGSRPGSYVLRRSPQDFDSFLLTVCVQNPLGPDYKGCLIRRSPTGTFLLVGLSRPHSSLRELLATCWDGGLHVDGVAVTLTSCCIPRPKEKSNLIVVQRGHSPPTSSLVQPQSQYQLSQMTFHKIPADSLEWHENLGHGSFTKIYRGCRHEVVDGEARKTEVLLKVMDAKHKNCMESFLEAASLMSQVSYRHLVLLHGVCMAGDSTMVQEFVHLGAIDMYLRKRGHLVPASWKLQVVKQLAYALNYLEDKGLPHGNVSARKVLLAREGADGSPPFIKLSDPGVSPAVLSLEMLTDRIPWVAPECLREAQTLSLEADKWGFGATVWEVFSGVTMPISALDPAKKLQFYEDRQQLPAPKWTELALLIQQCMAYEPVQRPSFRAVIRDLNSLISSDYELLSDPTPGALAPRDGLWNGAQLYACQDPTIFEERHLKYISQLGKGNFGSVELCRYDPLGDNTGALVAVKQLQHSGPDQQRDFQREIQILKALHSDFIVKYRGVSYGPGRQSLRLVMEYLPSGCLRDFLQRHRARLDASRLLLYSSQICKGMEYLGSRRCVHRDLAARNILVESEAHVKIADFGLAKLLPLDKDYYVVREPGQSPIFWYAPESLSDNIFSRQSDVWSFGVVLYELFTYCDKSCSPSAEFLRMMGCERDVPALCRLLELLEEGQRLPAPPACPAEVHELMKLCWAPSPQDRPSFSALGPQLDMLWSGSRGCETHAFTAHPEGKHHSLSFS
Procedure: as §1

ALK = target: T6, ALK (Homo sapiens, UniProt Q9UM73); details: for inhibition at 0.1 µM: inhibitor concentration 0.1 μM
T6 construct: purchased Carna Biosciences
Procedure: as §1

MAP2K1 = target: T7, MAP2K1 (Homo sapiens, UniProt Q02750); details: for inhibition at 0.1 µM: inhibitor concentration 0.1 μM
T7 construct: purchased Carna Biosciences
Procedure: as §1

BRK = target: T8, BRK (Homo sapiens, UniProt Q13882); details: for inhibition at 0.1 µM: inhibitor concentration 0.1 μM
T8 construct: purchased Carna Biosciences
Procedure: as §1

KIT(V560G) = target: T9, KIT(V560G) (Homo sapiens, UniProt P10721, V560G); details: for inhibition at 0.1 µM: inhibitor concentration 0.1 μM
T9 construct: purchased Carna Biosciences
Procedure: as §1

PDGFRα = target: T10, PDGFRα (Homo sapiens, UniProt P16234); details: for inhibition at 0.1 µM: inhibitor concentration 0.1 μM
T10 construct: purchased Carna Biosciences
Procedure: as §1

KDR = target: T11, KDR (Homo sapiens, UniProt P35968); details: for inhibition at 0.1 µM: inhibitor concentration 0.1 μM
T11 construct: purchased Carna Biosciences
Procedure: as §1

ROS = target: T12, ROS (Homo sapiens, UniProt P08922); details: inhibitor concentration 0.1 μM
T12 construct: purchased Carna Biosciences
Procedure: as §1

MAPKAPK2 = target: T13, MAPKAPK2 (Homo sapiens, UniProt P49137); details: inhibitor concentration 0.1 μM
T13 construct: purchased Carna Biosciences
Procedure: as §1

JNK1 = target: T14, JNK1 (Homo sapiens, UniProt P45983); details: inhibitor concentration 0.1 μM
T14 construct: purchased Carna Biosciences
Procedure: as §1

[1] = inhibitor concentration 0.01 μM
[2] = inhibitor concentration 0.01 μM, 0.01 µM

T3 sequence (P23458 whole entry): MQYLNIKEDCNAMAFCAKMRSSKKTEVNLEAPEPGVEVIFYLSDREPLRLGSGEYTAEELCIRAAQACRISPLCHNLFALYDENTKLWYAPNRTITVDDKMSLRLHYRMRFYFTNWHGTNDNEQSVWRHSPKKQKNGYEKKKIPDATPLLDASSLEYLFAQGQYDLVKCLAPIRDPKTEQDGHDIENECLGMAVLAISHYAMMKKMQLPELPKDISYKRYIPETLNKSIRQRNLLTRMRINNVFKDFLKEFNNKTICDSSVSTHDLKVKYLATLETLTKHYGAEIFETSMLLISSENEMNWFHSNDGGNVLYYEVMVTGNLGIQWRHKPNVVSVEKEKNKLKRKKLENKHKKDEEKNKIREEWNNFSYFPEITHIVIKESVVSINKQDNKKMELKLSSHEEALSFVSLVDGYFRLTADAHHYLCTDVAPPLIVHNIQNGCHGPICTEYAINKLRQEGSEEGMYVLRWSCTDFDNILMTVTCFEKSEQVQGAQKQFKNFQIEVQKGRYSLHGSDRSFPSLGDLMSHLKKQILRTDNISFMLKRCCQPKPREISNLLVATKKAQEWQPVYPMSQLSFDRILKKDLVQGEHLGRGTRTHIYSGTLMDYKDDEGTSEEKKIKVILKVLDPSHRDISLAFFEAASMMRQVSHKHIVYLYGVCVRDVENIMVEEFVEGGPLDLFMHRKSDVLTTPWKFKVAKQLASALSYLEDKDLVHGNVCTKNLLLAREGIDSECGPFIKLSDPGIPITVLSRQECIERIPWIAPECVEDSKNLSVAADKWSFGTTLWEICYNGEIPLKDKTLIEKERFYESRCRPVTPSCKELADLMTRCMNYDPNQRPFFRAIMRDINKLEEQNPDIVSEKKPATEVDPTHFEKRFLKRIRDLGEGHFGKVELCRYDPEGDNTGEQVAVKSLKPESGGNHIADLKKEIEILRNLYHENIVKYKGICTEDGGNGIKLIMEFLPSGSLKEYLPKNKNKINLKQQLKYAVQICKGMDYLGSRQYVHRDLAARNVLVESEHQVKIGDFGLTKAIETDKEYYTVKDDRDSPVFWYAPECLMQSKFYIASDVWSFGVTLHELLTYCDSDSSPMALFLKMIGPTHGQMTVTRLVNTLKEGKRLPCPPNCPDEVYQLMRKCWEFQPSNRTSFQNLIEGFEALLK
T14 sequence (P45983 whole entry): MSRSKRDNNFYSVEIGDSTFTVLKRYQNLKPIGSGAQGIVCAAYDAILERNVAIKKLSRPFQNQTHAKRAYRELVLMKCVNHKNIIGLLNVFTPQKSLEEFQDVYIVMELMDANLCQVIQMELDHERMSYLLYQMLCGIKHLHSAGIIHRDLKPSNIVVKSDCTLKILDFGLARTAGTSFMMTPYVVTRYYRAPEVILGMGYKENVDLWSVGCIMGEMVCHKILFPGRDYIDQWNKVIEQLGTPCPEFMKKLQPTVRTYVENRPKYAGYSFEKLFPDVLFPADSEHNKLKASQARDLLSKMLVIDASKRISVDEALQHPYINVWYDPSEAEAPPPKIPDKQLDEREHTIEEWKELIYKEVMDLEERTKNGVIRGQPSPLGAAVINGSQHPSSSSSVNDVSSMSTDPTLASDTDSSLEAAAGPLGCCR
T12 sequence (P08922 28-2347): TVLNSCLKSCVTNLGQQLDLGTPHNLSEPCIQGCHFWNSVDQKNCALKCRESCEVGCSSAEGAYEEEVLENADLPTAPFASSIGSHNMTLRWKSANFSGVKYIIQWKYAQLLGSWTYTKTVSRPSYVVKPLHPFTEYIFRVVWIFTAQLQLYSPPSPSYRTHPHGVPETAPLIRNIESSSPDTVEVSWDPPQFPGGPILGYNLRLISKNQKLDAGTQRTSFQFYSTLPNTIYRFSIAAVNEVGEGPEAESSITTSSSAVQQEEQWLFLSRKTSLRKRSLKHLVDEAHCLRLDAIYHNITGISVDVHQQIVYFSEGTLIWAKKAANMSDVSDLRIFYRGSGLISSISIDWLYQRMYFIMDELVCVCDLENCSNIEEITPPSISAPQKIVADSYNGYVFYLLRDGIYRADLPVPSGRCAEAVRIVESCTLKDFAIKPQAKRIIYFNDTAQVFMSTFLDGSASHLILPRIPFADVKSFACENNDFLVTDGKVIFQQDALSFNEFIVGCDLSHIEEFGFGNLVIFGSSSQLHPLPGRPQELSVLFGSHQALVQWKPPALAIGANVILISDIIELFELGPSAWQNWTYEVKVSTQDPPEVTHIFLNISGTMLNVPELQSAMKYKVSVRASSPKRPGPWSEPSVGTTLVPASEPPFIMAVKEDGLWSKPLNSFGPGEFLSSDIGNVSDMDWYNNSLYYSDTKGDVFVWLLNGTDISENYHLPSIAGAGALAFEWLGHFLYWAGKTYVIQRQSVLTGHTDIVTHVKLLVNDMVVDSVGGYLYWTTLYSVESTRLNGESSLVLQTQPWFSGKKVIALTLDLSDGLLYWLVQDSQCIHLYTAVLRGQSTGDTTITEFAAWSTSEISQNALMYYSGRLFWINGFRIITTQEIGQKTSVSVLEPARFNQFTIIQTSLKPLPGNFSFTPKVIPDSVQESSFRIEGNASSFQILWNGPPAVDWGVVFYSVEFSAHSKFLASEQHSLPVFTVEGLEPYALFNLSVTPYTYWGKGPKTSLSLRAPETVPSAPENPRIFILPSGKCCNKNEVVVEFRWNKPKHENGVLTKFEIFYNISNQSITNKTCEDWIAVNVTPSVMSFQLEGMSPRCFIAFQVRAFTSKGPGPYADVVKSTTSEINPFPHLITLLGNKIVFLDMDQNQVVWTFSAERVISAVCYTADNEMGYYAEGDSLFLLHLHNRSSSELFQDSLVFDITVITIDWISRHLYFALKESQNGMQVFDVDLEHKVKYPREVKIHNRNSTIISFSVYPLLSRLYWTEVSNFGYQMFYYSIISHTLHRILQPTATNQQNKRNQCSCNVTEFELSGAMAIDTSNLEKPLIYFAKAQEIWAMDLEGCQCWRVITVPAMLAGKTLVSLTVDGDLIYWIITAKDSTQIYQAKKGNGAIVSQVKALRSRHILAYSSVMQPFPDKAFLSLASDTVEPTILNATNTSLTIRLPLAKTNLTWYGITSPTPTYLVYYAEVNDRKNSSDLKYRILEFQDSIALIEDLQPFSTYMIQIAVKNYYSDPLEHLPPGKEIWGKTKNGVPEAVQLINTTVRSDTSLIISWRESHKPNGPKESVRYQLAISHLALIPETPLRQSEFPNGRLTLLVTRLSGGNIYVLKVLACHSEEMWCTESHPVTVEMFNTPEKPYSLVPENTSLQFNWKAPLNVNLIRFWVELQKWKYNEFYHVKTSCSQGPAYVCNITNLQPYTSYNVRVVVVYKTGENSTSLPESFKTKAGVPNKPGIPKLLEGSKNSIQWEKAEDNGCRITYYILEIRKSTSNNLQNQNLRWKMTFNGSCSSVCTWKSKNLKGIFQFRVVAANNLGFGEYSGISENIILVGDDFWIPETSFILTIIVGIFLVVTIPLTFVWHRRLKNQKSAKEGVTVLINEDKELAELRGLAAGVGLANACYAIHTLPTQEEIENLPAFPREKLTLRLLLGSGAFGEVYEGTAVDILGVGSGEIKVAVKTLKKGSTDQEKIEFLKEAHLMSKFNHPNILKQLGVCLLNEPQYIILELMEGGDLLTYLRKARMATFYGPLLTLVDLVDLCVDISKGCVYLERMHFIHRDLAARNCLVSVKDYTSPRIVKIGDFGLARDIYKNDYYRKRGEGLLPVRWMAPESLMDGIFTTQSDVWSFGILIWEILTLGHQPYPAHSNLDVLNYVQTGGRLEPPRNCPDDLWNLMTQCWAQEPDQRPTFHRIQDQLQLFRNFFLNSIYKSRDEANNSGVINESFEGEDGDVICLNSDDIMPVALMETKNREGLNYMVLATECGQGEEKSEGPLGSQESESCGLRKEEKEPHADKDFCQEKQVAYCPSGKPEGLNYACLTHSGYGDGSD
T10 sequence (P16234 24-1089): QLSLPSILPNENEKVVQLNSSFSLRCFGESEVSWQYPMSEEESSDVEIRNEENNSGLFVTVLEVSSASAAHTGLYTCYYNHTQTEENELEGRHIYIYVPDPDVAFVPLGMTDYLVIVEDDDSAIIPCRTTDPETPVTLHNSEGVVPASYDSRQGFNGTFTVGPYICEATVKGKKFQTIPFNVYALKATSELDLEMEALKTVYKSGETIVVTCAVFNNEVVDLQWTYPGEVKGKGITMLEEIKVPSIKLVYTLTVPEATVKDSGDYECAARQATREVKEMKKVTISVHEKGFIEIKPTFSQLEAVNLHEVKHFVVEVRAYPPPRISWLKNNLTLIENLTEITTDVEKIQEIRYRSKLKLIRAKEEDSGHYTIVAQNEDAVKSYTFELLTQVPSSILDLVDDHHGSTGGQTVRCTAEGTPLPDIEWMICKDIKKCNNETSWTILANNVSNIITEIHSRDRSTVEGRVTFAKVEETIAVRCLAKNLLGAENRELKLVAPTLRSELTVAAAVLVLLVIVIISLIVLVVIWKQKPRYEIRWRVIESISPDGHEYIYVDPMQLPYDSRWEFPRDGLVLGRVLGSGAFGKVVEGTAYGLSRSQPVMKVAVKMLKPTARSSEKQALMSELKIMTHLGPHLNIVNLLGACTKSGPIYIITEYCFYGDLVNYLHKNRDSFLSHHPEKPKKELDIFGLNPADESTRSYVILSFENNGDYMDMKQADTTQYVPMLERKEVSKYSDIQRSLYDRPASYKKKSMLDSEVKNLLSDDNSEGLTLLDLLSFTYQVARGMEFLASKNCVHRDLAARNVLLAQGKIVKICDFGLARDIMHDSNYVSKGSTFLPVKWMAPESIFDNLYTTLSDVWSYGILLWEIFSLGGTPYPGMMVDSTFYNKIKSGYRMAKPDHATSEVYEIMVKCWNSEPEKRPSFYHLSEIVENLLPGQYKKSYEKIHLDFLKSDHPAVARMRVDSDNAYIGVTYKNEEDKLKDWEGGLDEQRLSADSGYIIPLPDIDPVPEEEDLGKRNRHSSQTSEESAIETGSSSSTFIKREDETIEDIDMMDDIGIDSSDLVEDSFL

Row | Compound | inhibition at 0.1 µM (JAK1) | inhibition at 0.1 µM (RET) | inhibition at 0.1 µM (JAK3) | inhibition at 0.1 µM (BRK) | inhibition at 0.1 µM (KIT(V560G)) | inhibition at 0.1 µM (PDGFRα) | inhibition at 0.1 µM (KDR) | inhibition at 0.1 µM (PIK3CA/PIK3R1) | inhibition at 0.1 µM (HER4) | inhibition at 0.1 µM (ROS) | inhibition at 0.1 µM (MAPKAPK2) | inhibition at 0.1 µM (ALK) | inhibition at 0.1 µM (MAP2K1) | inhibition at 0.1 µM (JNK1) | other results
1 | O=C(c1c(F)ccc(NS(=O)(=O)CCCO)c1F)c1c[nH]c2ncc(-c3ccc(Cl)cc3)cc12 [200-17, N-[3-[5-(4-chlorophenyl)-1H-pyrrolo[2,3-b]pyridine-3-carbonyl]-2,4-difluorophenyl]-3-hydroxypropane-1-sulfonamide] | > 50% | < 50% | < 50% | > 50% | > 50% | > 50% | > 50% | – | – | – | – | – | – | – | inhibition at 1 µM (PIK3CA/PIK3R1; inhibitor concentration 1 μM): > 50%; inhibition at 1 µM (HER4; inhibitor concentration 1 μM): > 50%; inhibition at 0.01 µM (JAK1; [1]): > 30%; inhibition at 1 µM (JAK1; inhibitor concentration 1 μM): > 50%; inhibition at 0.01 µM (RET; [1]): < 30%; inhibition at 1 µM (RET; inhibitor concentration 1 μM): > 50%; inhibition at 0.01 µM (JAK3; [1]): < 30%; inhibition at 1 µM (JAK3; inhibitor concentration 1 μM): > 50%; inhibition at 1 µM (ALK; inhibitor concentration 1 μM): > 50%; inhibition at 1 µM (MAP2K1; inhibitor concentration 1 μM): < 50%; inhibition at 0.01 µM (BRK; [1]): > 30%; inhibition at 1 µM (BRK; inhibitor concentration 1 μM): > 50%; inhibition at 0.01 µM (KIT(V560G); [1]): < 30%; inhibition at 1 µM (KIT(V560G); inhibitor concentration 1 μM): > 50%; inhibition at 0.01 µM (PDGFRα; [1]): < 30%; inhibition at 1 µM (PDGFRα; inhibitor concentration 1 μM): > 50%; inhibition at 0.01 µM (KDR; [1]): < 30%; inhibition at 1 µM (KDR; inhibitor concentration 1 μM): > 50%
2 | O=C(c1c(F)ccc(NS(=O)(=O)CC(O)CO)c1F)c1c[nH]c2ncc(-c3ccc(Cl)cc3)cc12 (stereo not drawn) [200-73, N-[3-[5-(4-chlorophenyl)-lH-pyrrolo [2,3-b]pyridine-3-carbonyl]-2,4-difluorophenyl]-2,3-dihydroxypropane-l-sulfonamide] | > 30% | < 30% | < 30% | > 30% | < 30% | < 30% | < 30% | < 30% | < 30% | < 30% | < 30% | < 30% | < 30% | < 30% | –
3 | C/C=C/S(=O)(=O)Nc1ccc(F)c(C(=O)c2c[nH]c3ncc(-c4ccc(Cl)cc4)cc23)c1F [200-93b] | – | – | – | – | – | – | – | – | – | – | – | – | – | – | JAK1 inhibition (JAK1; [2]): <20%; JAK3 inhibition (JAK3; [2]): <20%; BRK inhibition (BRK; [2]): >20%; KIT(V560G) inhibition (KIT(V560G); [2]): <20%; PDGFRα inhibition (PDGFRα; [1]): >20%
4 | CC(O)CS(=O)(=O)Nc1ccc(F)c(C(=O)c2c[nH]c3ncc(-c4ccc(Cl)cc4)cc23)c1F (stereo not drawn) [200-115] | < 30% | < 30% | < 30% | > 30% | < 30% | > 30% | < 30% | < 30% | < 30% | < 30% | < 30% | < 30% | < 30% | < 30% | –
5 | CC(=O)CS(=O)(=O)Nc1ccc(F)c(C(=O)c2c[nH]c3ncc(-c4ccc(Cl)cc4)cc23)c1F [200-117] | < 30% | < 30% | < 30% | > 30% | < 30% | > 30% | < 30% | < 30% | < 30% | < 30% | < 30% | < 30% | < 30% | < 30% | –
